Patent US20090099064A1, “Derivatized insulin oligomers” (Diabecore Medical Inc.,, priority 2006, published 2009)
Like-named read-outs stand apart in the source and are kept apart here.

Tests used:
[1] = U.S. Pat. No. 5,453,417 & PCT/CA92/00082; cited from earlier work
[2] = phase 3 clinical trials; cited from earlier work
diabetic beagle dogs = assay: Subcutaneous injection into diabetic dogs, glucose suppression; type: in vivo; details: compared with unmodified insulin
Method: FIG. 4. Subcutaneous injection of human insulin and P-insulin oligomers into diabetic beagle dogs.
The formulation of example 3 containing P-insulin oligomers of sequence ID NO.2 and with 3:1 M:M protamine/insulin or unmodified insulin were injected subcutaneously into diabetic dogs.

[3] = system: pancreatectomized diabetic beagle dogs; assay: Intravenous injection into pancreatectomized diabetic dogs, blood glucose
L6 rat myocytes = assay: 2-deoxyglucose uptake in L6 rat myocyte cell cultures; type: cell-based; details: 60 min incubation
Method: FIG. 5. Dose response curve of human & porcine & P-insulin oligomers in L6 rat myocytes. Cells were incubated for 60 min. in the various concentrations of each insulin in separate experiments. 2-deoxyglucose uptake was then measured.
P-insulin oligomers of sequence ID NO. 1 were tested in L6 rat myocyte cell cultures for their ability to cause glucose uptake.

[4] = system: pancreatectomized diabetic beagle dogs; details: dog, in vivo, iv
Sprague-Dawley rats = assay: Pulmonary (intratracheal) administration to Sprague-Dawley rats, whole blood glucose; type: in vivo
Method: FIG. 6. Glucose response of Sprague-Dawley rats to […] of phosphorylated insulin hexamer. Rats were injected at Oh and glucose levels measured for 12 h. As shown, glucose levels dropped by 2 h post-dosing and remained suppressed out to 11 h post-dose, after which they returned to baseline or pre-dose levels.
Via the pulmonary route, six Sprague-Dawley rats (BW 250-360 g.) were administered 4 mg of phosphorylated insulin oligomer (in the form of hexamer). The animals were dosed by intratracheal administration using a PennCentury intratracheal Aerosolizer (Microsprayer). The dose volume was 100 μL/animal. The dose concentration for the study was prepared by dilution of 30 mg/mL phosphorylated insulin hexamer in isotonic phosphate buffered normal saline, pH 7.4.
An Antisedan cocktail consisting of atipamezole hydrochloride (1 mg/mL, 1 mg/kg) and saline was administered by subcutaneous injection at a dose volume of 1 mL/kg, following completion of the dosing process. A series of 13 blood samples (approximately 0.1 mL/sample) were collected from each animal at 1, 2, 3, 4, 5, 6, 7, 8, 9, 10, 11 and 12 hours post-dose. For this purpose, each rat (unanesthetized) was bled by jugular/tail vein venipuncture (or other site as deemed necessary) and the sample used for measuring whole blood glucose levels using the Accu Soft Advantage™ (glucometer) method. […]

[5] = IV injection, pancreatectomized diabetic dogs

Q: With “monomeric phosphorylated insulin: monomeric phosphorylated insulin of the Lougheed patents U.S. Pat. No. 5,453,417 & PCT/CA92/00082” as the substance, how does the “flattening of insulin's dose response” value [1] read?
A: The value was 3-4 fold.

Q: With Lantus as the substance, how does the “fasting blood glucose (FBG) achieved” value [2] read?
A: The value was 145 mg %.

Q: With “P-insulin oligomers: phosphorylated insulin oligomers comprising sequence ID NOs. 1 and 2; FIG. 3 and 5 use ID NO. 1, FIG. 4 uses ID NO. 2” as the substance, how does the “glucose suppression / duration of action” value (diabetic beagle dogs) read?
A: The value was “extended duration of action”.

Q: And the “course of blood glucose after injection” value [3, 5]?
A: Its value is “maintenance of normal glucose without hyperglycemia at all doses”.

Q: And the “dose response of 2-deoxyglucose uptake” value (L6 rat myocytes; entire dose range)?
A: Its value is “flattened dose response at all concentrations investigated”.

Q: And the “maximal stimulation of deoxy-glucose uptake” value (L6 rat myocytes; relative to human (and porcine) insulin)?
A: Its value is “markedly lower than that for porcine or human insulin”.

Q: And the “dose at which hypoglycemia was observed” value [4]?
A: Its value is 8 times the basal or "glucose ma.

Q: And the “serum half-life / duration of action (in words)” value [4]?
A: Its value is “extended duration of action (long serum half-life)”.

Q: With human insulin as the substance, how does the “serum half-life / duration of action (in words)” value ([3]; IV injection, pancreatectomized diabetic beagle dogs) read?
A: The value was “short serum half-life”.

Q: And the “course of blood glucose after injection” value [3, 5]?
A: Its value is “rapid decline in blood glucose”.

Q: What about the hypoglycemia [3, 5] of the same substance?
A: Its hypoglycemia is “pronounced hypoglycemia”.

Q: And the duration of action ([3]; given IV, pancreatectomized diabetic dogs)?
A: The duration of action was 20 min.

Q: Which “time at which glucose returned to pre-dose levels” value (Sprague-Dawley rats; 4 mg) does the source give for “phosphorylated insulin hexamer: phosphorylated insulin oligomer in the form of hexamer, in isotonic phosphate buffered normal saline, pH 7.4” here?
A: Its value is at most 12 h.

Q: And the “time for which blood glucose remained below baseline post-dosing” value (Sprague-Dawley rats; 4 mg (FIG. 6 legend says 40 mg))?
A: The value was 11 h.

Q: Which “fasting blood glucose (FBG) achieved” value [2] does the source give for Detemir here?
A: Its value is 145 mg %.
